Where “and” joins values, the source holds several entries; their conditions need not be identical. Equal entries are not always repeated.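 Interpolation was linear, between the two tested concentrations surrounding the appropriate level; five concentrations were tested over 48 hours in 96-well plates. GI50: concentration for 50% inhibition of growth. At the TGI there is no net growth.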
Tests used:
Assay in all cases: NCI tumour cell line growth inhibition, 48 h
UACC-257 melanoma = test system: UACC-257 melanoma
HL-60(TB) leukemia = test system: HL-60(TB) leukemia
NCI-H522 lung = test system: NCI-H522 lung
HT29 colon = test system: HT29 colon
NCI-H460 lung = test system: NCI-H460 lung
SNB-19 CNS = test system: SNB-19 CNS
ACHN renal = test system: ACHN renal
SN12C renal = test system: SN12C renal
OVCAR-4 ovarian = test system: OVCAR-4 ovarian
MDA-MB-231 breast = test system: MDA-MB-231 breast
MDA-MB-435 = test system: MDA-MB-435

Structure (SMILES)	TGI (UACC-257 melanoma)	TGI (HL-60(TB) leukemia)	TGI (NCI-H522 lung)	TGI (HT29 colon)	TGI (NCI-H460 lung)	TGI (SNB-19 CNS)	TGI (ACHN renal)	TGI (SN12C renal)	TGI (OVCAR-4 ovarian)	TGI (MDA-MB-231 breast)	TGI (MDA-MB-435)	GI50 (UACC-257 melanoma)	GI50 (NCI-H522 lung)	GI50 (MDA-MB-435)	GI50 (HT29 colon)	GI50 (NCI-H460 lung)	GI50 (SNB-19 CNS)	GI50 (ACHN renal)	GI50 (SN12C renal)
COc1ccc(N=NC(C(=O)c2ccccc2)C(=O)c2ccccc2)cc1	> 100 µM	32.7 µM	45 µM	74 µM	68.4 µM	80.3 µM	86.1 µM	78.8 µM	> 100 µM	–	–	–	–	–	–	–	–	–	–
CN(C(=O)C12C3C4C5C3C1(C(=O)C13C6C7C8C6C1C8C73)C5C42)C(C)(C)C (configuration not stated)	> 50 µM	> 26.9 µM	> 50 µM	> 50 µM	> 50 µM	> 50 µM	> 50 µM	> 50 µM	> 50 µM	–	–	–	–	–	–	–	–	–	–
CN(C)c1ccc(C=NCC2CCCN3CCCCC23)cc1 (configuration not stated)	> 100 µM	–	> 100 µM	–	> 100 µM	> 100 µM	> 100 µM	–	–	> 100 µM	–	–	–	–	–	–	–	–	–
C/C=C(/I)CBr	–	20.5 µM	4.35 µM	–	37.4 µM	63.5 µM	45.5 µM	34.1 µM	49.3 µM	–	–	–	–	–	–	–	–	–	–
Cc1c2c3ccccc3nc-2n(C)c2ccccc12	8.05 µM	–	–	11.6 µM	2.85 µM	44.5 µM	6.23 µM	6.97 µM	–	–	12.4 µM	–	–	–	–	–	–	–	–
N#CN/C(N)=N/C/N=C(\N)NC#N	> 100 µM	> 100 µM	> 100 µM	> 100 µM	> 100 µM	> 100 µM	> 100 µM	> 100 µM	> 100 µM	–	–	–	–	–	–	–	–	–	–
CCN(CC)CCCNc1ccc2nc(C)n3c4ccc(O)cc4c(=O)c1c23	29 µM	> 21.1 µM	14.3 µM	14.2 µM	12.1 µM	22 µM	15.2 µM	18.7 µM	20.1 µM	–	22 µM	–	–	–	–	–	–	–	–
CCC1(N=[N+]=[N-])C(=O)c2ccccc2N(C)C1=O (configuration not stated)	> 100 µM	> 100 µM	> 100 µM	> 100 µM	> 100 µM	> 100 µM	> 100 µM	> 100 µM	> 100 µM	–	–	–	–	–	–	–	–	–	–
O=S(=O)(O)c1cc(N=Nc2c(O)ccc3ccccc23)ccc1/C=C/c1ccc(N=Nc2c(O)ccc3ccccc23)cc1S(=O)(=O)O	> 100 µM	–	> 100 µM	> 100 µM	–	> 100 µM	> 100 µM	> 100 µM	> 100 µM	> 100 µM	> 100 µM	–	–	–	–	–	–	–	–
O=c1cc(CO)oc2c3c(cc(O)c12)OCC(COC1OC(CO)C(O)C(O)C1O)=CC3 (configuration not stated)	> 100 µM	> 100 µM	> 100 µM	> 100 µM	> 100 µM	> 100 µM	> 100 µM	> 100 µM	> 100 µM	–	–	–	–	–	–	–	–	–	–
Cc1c2ccncc2cc2c1[nH]c1ccccc12	13.5 µM	6.36 µM	18.9 µM	31.5 µM	5.77 µM	34.7 µM	–	9.12 µM	33.2 µM	–	–	–	–	–	–	–	–	–	–
COc1ccc(C(c2c(O)c3ccccc3n(-c3ccccc3)c2=O)c2c(O)c3ccccc3n(-c3ccccc3)c2=O)cc1	–	–	> 100 µM	–	–	> 100 µM	> 100 µM	> 100 µM	> 100 µM	–	–	–	–	–	–	–	–	–	–
NC1=C(NC(=O)Cc2ccccc2F)C(=O)c2ccccc2C1=O	> 100 µM	> 100 µM	> 100 µM	> 100 µM	> 100 µM	> 100 µM	> 100 µM	> 100 µM	> 100 µM	–	–	–	–	–	–	–	–	–	–
CCOc1ccc2[nH]c3c(C)c4ccncc4c(C)c3c2c1	3.24 µM	–	2.77 µM	2.18 µM	1.68 µM	2.77 µM	2.25 µM	1.93 µM	2.72 µM	–	–	–	–	–	–	–	–	–	–
CC(=O)OCC1OC(n2cc(F)c(=O)[nH]c2=O)C(NC(=O)OCc2ccccc2)C(OC(C)=O)C1OC(C)=O (configuration not stated)	> 100 µM	> 100 µM	> 100 µM	> 100 µM	> 100 µM	> 100 µM	–	> 100 µM	> 100 µM	–	–	–	–	–	–	–	–	–	–
Brc1ccc(C[P+]2(c3ccccc3)CCCCC2)cc1	73.8 µM	75.8 µM	> 100 µM	> 100 µM	> 100 µM	> 100 µM	> 100 µM	> 100 µM	–	–	–	–	–	–	–	–	–	–	–
COC(=O)/C=C(C)/C=C/C1OC(C)OCC1O (configuration not stated)	> 100 µM	> 100 µM	> 100 µM	> 100 µM	> 100 µM	> 100 µM	> 100 µM	> 100 µM	> 100 µM	–	–	–	–	–	–	–	–	–	–
CCOC(=O)c1[nH]c(Br)c(-c2ccc(OC)c(OC)c2)c1Br	22.3 µM	1.99 µM	0.349 µM	0.0667 µM and 0.308 µM	> 100 µM	17.6 µM	22.6 µM	49.4 µM	–	–	0.00973 µM	10 µM	0.0328 µM	0.00279 µM	0.0258 µM	19.2 µM	0.0137 µM	0.239 µM	1.59 µM
NC(=S)/N=C(/c1nc2ccc(Cl)cc2[nH]c1=O)C(O)c1ccccc1Cl (configuration not stated)	> 100 µM	> 100 µM	> 100 µM	> 100 µM	> 100 µM	–	> 100 µM	–	> 100 µM	–	–	–	–	–	–	–	–	–	–
O=C(/C=C/c1ccccc1)CSc1ncn[nH]1	> 100 µM	> 100 µM	> 100 µM	> 100 µM	> 100 µM	> 100 µM	> 100 µM	> 100 µM	> 100 µM	–	–	–	–	–	–	–	–	–	–

— PubChem BioAssay (NCI)
